In brackets after ≈: the same amount, converted by molar mass.
Key:
[1] = tested on: Staphylococcus aureus; test: Antimicrobial activity against methicillin-resistant Staphylococcus aureus ATCC 25923 by microdilution method; assay type: functional
[2] = tested on: Escherichia coli; test: Antimicrobial activity against Escherichia coli ATCC […] by microdilution method; assay type: functional
[3] = tested on: Escherichia coli; test: Antimicrobial activity against multidrug resistance Escherichia coli ATCC 35218 by microdilution method; assay type: functional
[4] = tested on: Staphylococcus aureus; test: Antimicrobial activity against Staphylococcus aureus ATCC 29213 by microdilution method; assay type: functional
[5] = tested on: Pseudomonas aeruginosa; test: Antimicrobial activity against Pseudomonas aeruginosa ATCC 43288 incubated for 18 to 24 hrs by microbroth dilution method; assay type: functional
[6] = tested on: Staphylococcus aureus; test: Antimicrobial activity against Staphylococcus aureus ATCC 25923 incubated for 18 to 24 hrs by microbroth dilution method; assay type: functional
[7] = tested on: Enterococcus faecalis; test: Antimicrobial activity against Enterococcus faecalis ATCC 29212 incubated for 18 to 24 hrs by microbroth dilution method; assay type: functional
[8] = tested on: Bacillus cereus; test: Antimicrobial activity against Bacillus cereus 709 Roma incubated for 18 to 24 hrs by microbroth dilution method; assay type: functional
[9] = tested on: Mycolicibacterium smegmatis; test: Antimicrobial activity against Mycobacterium smegmatis ATCC 607 incubated for 48 to 72 hrs by microbroth dilution method; assay type: functional
[10] = tested on: Aspergillus clavatus; test: Antifungal activity against Aspergillus clavatus after overnight incubation by agar well diffusion method; assay type: functional
[11] = tested on: Candida albicans; test: Antifungal activity against Candida albicans after overnight incubation by agar well diffusion method; assay type: functional
[12] = tested on: PC-3; test: Growth inhibition of human PC3 cells by MTT assay; assay type: functional, cell-based
[13] = tested on: Helicobacter pylori; test: Antimicrobial activity against Helicobacter pylori clinical isolate 1 after 7 days by two-fold agar dilution method; assay type: functional; conditions: clinical isolate 1, 168 h
[14] = tested on: Helicobacter pylori; test: Antimicrobial activity against Helicobacter pylori clinical isolate 2 after 7 days by two-fold agar dilution method; assay type: functional; conditions: clinical isolate 2, 168 h
[15] = tested on: Staphylococcus aureus; test: Antimicrobial activity against methicillin-susceptible Staphylococcus aureus ATCC 29213 incubated for 16 hrs by CLSI method; assay type: functional; conditions: ATCC 29213, 16 h
[16] = tested on: Staphylococcus aureus; test: Antimicrobial activity against healthcare-acquired methicillin-resistant Staphylococcus aureus NRS70 incubated for 16 hrs by CLSI method; assay type: functional; conditions: NRS70, 16 h
[17] = tested on: Mycobacterium tuberculosis; test: Antimicrobial activity against Mycobacterium tuberculosis H37Rv incubated for 10 days by microbroth dilution method; assay type: functional; conditions: 240 h
[18] = tested on: Escherichia coli; test: Antimicrobial activity against Escherichia coli ATCC 9637 incubated for 24 hrs by CLSI-based broth microdilution method; assay type: functional; conditions: W ATCC 9637, 24 h
[19] = tested on: Pseudomonas aeruginosa; test: Antimicrobial activity against Pseudomonas aeruginosa ATCC BAA-427 incubated for 24 hrs by CLSI-based broth microdilution method; assay type: functional; conditions: ATCC BAA-427, 24 h
[20] = tested on: Staphylococcus aureus; test: Antimicrobial activity against methicillin-resistant Staphylococcus aureus ATCC 700699 incubated for 24 hrs by CLSI-based broth microdilution method; assay type: functional; conditions: ATCC 700699, 24 h
[21] = tested on: Staphylococcus aureus; test: Antimicrobial activity against gentamicin-resistant Staphylococcus aureus ATCC 33592 incubated for 24 hrs by CLSI-based broth microdilution method; assay type: functional; conditions: ATCC 33592, 24 h
[22] = tested on: Klebsiella pneumoniae; test: Antimicrobial activity against Klebsiella pneumoniae ATCC 27736 incubated for 24 hrs by CLSI-based broth microdilution method; assay type: functional; conditions: ATCC 27736, 24 h
[23] = tested on: Staphylococcus aureus; test: Antimicrobial activity against Staphylococcus aureus ATCC 29213 incubated for 24 hrs by CLSI-based dilution method; assay type: functional; conditions: ATCC 29213, 24 h
[24] = tested on: Staphylococcus aureus; test: Antimicrobial activity against Staphylococcus aureus ATCC 25923 incubated for 24 hrs by CLSI-based dilution method; assay type: functional; conditions: ATCC 25923, 24 h
[25] = tested on: Pseudomonas aeruginosa; test: Antimicrobial activity against Pseudomonas aeruginosa ATCC 27853 incubated for 18 to 24 hrs by disk diffusion method; assay type: functional
[26] = tested on: Escherichia coli; test: Antimicrobial activity against Escherichia coli ATCC 25922 incubated for 18 to 24 hrs by disk diffusion method; assay type: functional
[27] = tested on: Staphylococcus aureus; test: Antimicrobial activity against Staphylococcus aureus ATCC 25923 incubated for 18 to 24 hrs by disk diffusion method; assay type: functional
[28] = tested on: Bacillus subtilis; test: Antimicrobial activity against Bacillus subtilis 10B incubated for 18 to 24 hrs by disk diffusion method; assay type: functional

Molecule `O=C(O)c1cn(C2CC2)c2c(cc(F)c3nn(CN(N4CCOCC4)N4CCOCC4)c(=O)n32)c1=O` has an MIC [1] of at most 2 µg/mL, an MIC [2] of at most 0.25 µg/mL and an MIC [3] of at most 2 µg/mL. It also gave an MIC [4] of at most 0.25 µg/mL.
`CCN(CC)N(Cn1nc2c(F)cc3c(=O)c(C(=O)O)cn(C4CC4)c3n2c1=O)N(CC)CC` showed an MIC [1] of at most 32 µg/mL, an MIC [2] of at most 16 µg/mL and an MIC [3] of at most 32 µg/mL. For the same molecule, the MIC [4] was at most 8 µg/mL.
Work on `CCn1cc(C(=O)O)c(=O)c2cc(F)c(N3CCN(Cn4nc(CN5CCN(c6ccc([N+](=O)[O-])cc6)CC5)n(Cc5ccccc5)c4=S)CC3)cc21` yielded an MIC [5] of 0.06 to 0.48 µg/mL (≈ 0.0809 to 0.647 µM), an MIC [6] of 0.12 to 0.24 µg/mL (≈ 0.162 to 0.324 µM) and an MIC [7] of 0.122 to 0.488 µg/mL (≈ 0.164 to 0.658 µM). The MIC [8] was 0.12 to 0.48 µg/mL (≈ 0.162 to 0.647 µM) and the MIC [9] was 0.244 µg/mL (≈ 0.329 µM).
In the case of `COc1c(N2CCN(C)CC2)c(F)cc2c(=O)c(C(=O)N/N=C\c3cccc(N(C)C)c3)cn(C3CC3)c12`, the “inhibition zone (IZ)” value [10] is reported as 10 mm and the “inhibition zone (IZ)” value [11] is reported as 8 mm.
With `COc1cc(/C=N\NC(=O)c2cn(C3CC3)c3c(OC)c(N4CCN(C)CC4)c(F)cc3c2=O)ccc1O` the IC50 [12] was 14.8 µg/mL (≈ 28.3 µM), the “inhibition zone (IZ)” value [10] was 12 mm and the “inhibition zone (IZ)” value [11] was 10 mm.
Molecule `CN(C)N(Cn1nc2c(F)cc3c(=O)c(C(=O)O)cn(C4CC4)c3n2c1=O)N(C)C` has an MIC [1] of at most 8 µg/mL, an MIC [2] of at most 1 µg/mL and an MIC [3] of at most 4 µg/mL. For the same molecule, the MIC [4] was at most 2 µg/mL.
With `O=C(O)c1cn(C2CC2)c2c(cc(F)c3nn(CN(N4CCCC4)N4CCCC4)c(=O)n32)c1=O` the MIC [13] was 2.5 µg/mL (≈ 5.3 µM) and the MIC [14] was 0.6 µg/mL (≈ 1.27 µM).
For `COc1c(N2CCNCC2)c(F)cc2c(=O)c(C(=O)N3CCSC3)cn(C3CC3)c12`, the MIC90 [15] was 0.39 µg/mL (≈ 0.902 µM) and the MIC90 [16] was 0.62 µg/mL (≈ 1.43 µM).
`Cc1ccc(Nc2c(F)cc3c(=O)c(C(=O)O)cn(C4CC4)c3c2N)cc1` was tested, and the MIC [13] was 5 µg/mL (≈ 13.6 µM) and the MIC [14] was 2.5 µg/mL (≈ 6.8 µM).
In the case of `COc1c(N2CCN(C)CC2)c(F)cc2c(=O)c(C(=O)N/N=C\c3ccc(O)cc3)cn(C3CC3)c12`, the IC50 [12] is reported as 14.4 µg/mL (≈ 29.2 µM), the “inhibition zone (IZ)” value [10] is reported as 12 mm and the “inhibition zone (IZ)” value [11] is reported as 9 mm.
`Nc1c(Nc2ccc(Cl)cc2)c(F)cc2c(=O)c(C(=O)O)cn(C3CC3)c12` gave an MIC [13] of 5 µg/mL (≈ 12.9 µM) and an MIC [14] of 2.5 µg/mL (≈ 6.45 µM).
`O=C(O)c1cn(C2CC2)c2c(cc(F)c3c2nnn3-c2ccc(Cl)cc2)c1=O` was tested, and the MIC [13] was 5 µg/mL (≈ 12.5 µM) and the MIC [14] was 2.5 µg/mL (≈ 6.27 µM).
For `COc1ccc(Nc2c(F)cc3c(=O)c(C(=O)O)cn(C4CC4)c3c2N)cc1`, the MIC [13] was 2.5 µg/mL (≈ 6.52 µM) and the MIC [14] was 5 µg/mL (≈ 13 µM).
`COc1c(N2CCCC2)c(F)cc2c(=O)c(C(=O)Nc3nccs3)cn(C3CC3)c12` was tested, and the MIC90 [15] was over 201 µg/mL and the MIC90 [16] was over 201 µg/mL.
With `COc1ccc(OC)c(/C=N\NC(=O)c2cn(C3CC3)c3c(OC)c(N4CCN(C)CC4)c(F)cc3c2=O)c1` the IC50 [12] was 3 µg/mL (≈ 5.58 µM), the “inhibition zone (IZ)” value [10] was 8 mm and the “inhibition zone (IZ)” value [11] was 10 mm.
For `C[C@H]1COc2c(-c3cc4ccccc4oc3=O)c(F)cc3c(=O)c(C(=O)O)cn1c23`, the MIC [17] was 12.5 µg/mL (≈ 30.7 µM).
Work on `CCn1cc(C(=O)O)c(=O)c2cc(F)c(-c3cc4ccccc4oc3=O)cc21` yielded an MIC [17] of 12.5 µg/mL (≈ 33 µM).
`CC1CNCCN1N(Cn1nc2c(F)cc3c(=O)c(C(=O)O)cn(C4CC4)c3n2c1=O)N1CCNCC1C` (stereo not given) was tested, and the MIC [1] was at most 1 µg/mL, the MIC [2] was at most 0.25 µg/mL and the MIC [3] was at most 2 µg/mL. For the same molecule, the MIC [4] was at most 0.5 µg/mL.
`CCn1cc(C(=O)O)c(=O)c2cc(F)c(-n3cc(CO[C@H]4OC[C@@H](OC(C)=O)[C@@H](OC(C)=O)[C@@H]4OC(C)=O)nn3)c(F)c21` was tested, and the MIC [18] was 12.5 µg/mL (≈ 20.5 µM), the MIC [19] was over 50 µg/mL and the MIC [20] was over 50 µg/mL. It also gave an MIC [21] of 6.25 µg/mL (≈ 10.3 µM), an MIC [22] of 6.25 µg/mL (≈ 10.3 µM) and an MIC [23] of 6.25 µg/mL (≈ 10.3 µM). For the same molecule, the MIC [24] was 6.25 µg/mL (≈ 10.3 µM).
`CCn1cc(C(=O)O)c(=O)c2cc(F)c(NNc3c[nH]c(=O)[nH]c3=O)c(F)c21` gave an MIC [25] of over 500 µg/mL, an MIC [26] of 170 µg/mL (≈ 432 µM) and an MIC [27] of 195 µg/mL (≈ 496 µM). The MIC [28] was over 500 µg/mL.
For `COc1c(N2CCN(C)CC2)c(F)cc2c(=O)c(C(=O)N/N=C\c3ccc([N+](=O)[O-])cc3)cn(C3CC3)c12`, the IC50 [12] was 15 µg/mL (≈ 28.7 µM), the “inhibition zone (IZ)” value [10] was 8 mm and the “inhibition zone (IZ)” value [11] was 10 mm.
`CCn1cc(C(=O)O)c(=O)c2cc(F)c(NNc3ncccn3)c(F)c21` gave an MIC [25] of over 500 µg/mL, an MIC [26] of 120 µg/mL (≈ 332 µM) and an MIC [27] of 150 µg/mL (≈ 415 µM). It also gave an MIC [28] of over 500 µg/mL.
`CCn1cc(C(=O)O)c(=O)c2cc(F)c(N3CCN(C(C)=O)CC3)cc21` [4-N-ACETYL-1-PIPERAZINYL-NORFLOXACIN] was tested, and the MIC [25] was over 500 µg/mL, the MIC [26] was 0.012 µg/mL (≈ 0.0332 µM) and the MIC [27] was 10.7 µg/mL (≈ 29.7 µM). For the same molecule, the MIC [28] was 0.805 µg/mL (≈ 2.23 µM).

From ChEMBL document CHEMBL4602605, “Fluoroquinolones structural and medicinal developments (2013-2018): Where are we now?” (Bioorg Med Chem, 2019)
